What was measured:
Experiment in all cases: Bliss excess, mean over the matrix (fraction); higher = more synergy
[1] = test system: HO-1-u-1 (Oral Cavity Carcinoma)
Method in brief: (§1)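 Cell lines grown in DMEM/F12 or RPMI with 10% FBS were plated in 1536-well plates and held 24 hours at 37°C, 5% CO2 before 72 hours of exposure to two-drug dose matrices, with DMSO typically at 0.2%. CellTiter-Glo 2.0 luminescence gave viability, which was converted to inhibition. Vehicle wells were set to 0 and blank wells to 1. Combination Emax is the second-highest inhibition in the matrix, and Bliss excess is the observed combination effect minus the expected EA + EB − EA·EB, where EA and EB are the single-agent effects.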

[2] = test system: SK-OV-3 (Ovarian Carcinoma)
Method in brief: as §1

HMV-II (Melanoma) = test system: HMV-II (Melanoma)
Method in brief: as §1

[3] = test system: SU-DHL-6 (B-Cell Non-Hodgkin's Lymphoma)
Method in brief: as §1

Mewo (Melanoma) = test system: Mewo (Melanoma)
Method in brief: as §1

[4] = test system: OVCAR-8 (Ovarian Carcinoma)
Method in brief: as §1

[5] = test system: LoVo (Colorectal Carcinoma)
Method in brief: as §1

SH-4 (Melanoma) = test system: SH-4 (Melanoma)
Method in brief: as §1

[6] = test system: KARPAS-231 (B-Cell Non-Hodgkin's Lymphoma)
Method in brief: as §1

[7] = test system: LB771-HNC (Head and Neck Carcinoma)
Method in brief: as §1

[8] = test system: RPMI-6666 (Non-Cancerous)
Method in brief: as §1

[9] = test system: EN (Endometrial Carcinoma)
Method in brief: as §1

[10] = test system: PCI-30 (Head and Neck Carcinoma)
Method in brief: as §1

NCI-H2461 (Mesothelioma) = test system: NCI-H2461 (Mesothelioma)
Method in brief: as §1

[11] = test system: CAL-51 (Breast Carcinoma)
Method in brief: as §1

[12] = test system: SW1116 (Colorectal Carcinoma)
Method in brief: as §1

NCI-H28 (Mesothelioma) = test system: NCI-H28 (Mesothelioma)
Method in brief: as §1

[13] = test system: HCC-15 (Squamous Cell Lung Carcinoma)
Method in brief: as §1

[14] = test system: CAL-54 (Kidney Carcinoma)
Method in brief: as §1

[15] = test system: UMC-11 (Other Solid Carcinomas)
Method in brief: as §1

Compound	Bliss excess [1]	Bliss excess [2]	Bliss excess (HMV-II (Melanoma))	Bliss excess [3]	Bliss excess (Mewo (Melanoma))	Bliss excess [4]	Bliss excess [5]	Bliss excess (SH-4 (Melanoma))	Bliss excess [6]	Bliss excess [7]	Bliss excess [8]	Bliss excess [9]	Bliss excess [10]	Bliss excess (NCI-H2461 (Mesothelioma))	Bliss excess [11]	Bliss excess [12]	Bliss excess (NCI-H28 (Mesothelioma))	Bliss excess [13]	Bliss excess [14]	Bliss excess [15]
NC1(C(=O)N[C@@H](CCO)c2ccc(Cl)cc2)CCN(c2ncnc3[nH]ccc23)CC1 [Capivasertib] + CC(=O)c1c(C)c2cnc(Nc3ccc(N4CCNCC4)cn3)nc2n(C2CCCC2)c1=O [Palbociclib] (first compound max 10 µM, 7x7, partner max 10 µM)	-0.0234	-0.0463	-0.0138	0.0059	-0.0588	-0.0017	-0.03	-0.045	-0.044	-0.0781	-0.0423	-0.0165	-0.0554	-0.0609	0.0262	-0.0297	-0.0343	-0.0442	-0.0279	0.039
COc1cc2c(cc1OCCCCCOc1cc3c(cc1OC)C(=O)N1C=C(C)C[C@H]1C=N3)N=C[C@@H]1CC(C)=CN1C2=O [SG3199] + O=C(c1cc(Cc2n[nH]c(=O)c3ccccc23)ccc1F)N1CCN(C(=O)C2CC2)CC1 [Olaparib] (first compound max 0.001 µM, 7x7, partner max 10 µM)	-0.0205	-0.0477	-0.0524	0.0075	-0.0489	-0.0295	-0.0455	-0.027	0.0289	0.0002	0.0028	-0.0456	-0.0328	-0.0652	-0.0299	-0.0356	-0.0556	-0.0166	-0.0488	0.0084
Cc1c2c(nn1C)CSCc1cc(n(C)n1)CSc1cc(c3ccccc3c1)OCCCc1c(C(=O)O)n(C)c3c-2c(Cl)ccc13 [AZD5991] + CCN(CCO)CCCOc1ccc2c(Nc3cc(CC(=O)Nc4cccc(F)c4)[nH]n3)ncnc2c1 [AZD2811] (first compound max 1 µM, 7x7, partner max 1 µM)	0.0569	0.0018	–	0.0379	-0.0173	0.0412	-0.0257	0.0439	-0.007	0.0432	–	0.0145	0.0256	0.0185	0.112	-0.003	0.0191	-0.0144	-0.0018	-0.0037
Cc1cc2ncnn2cc1Nc1ncc2c(n1)n(C1CCOCC1)c(=O)n2C [AZD7648] + CN(C)CCCOc1ccc(-c2ccc3ncc4c(c3c2)n(C2CCOCC2)c(=O)n4C)cn1 [AZD0156] (first compound max 10 µM, 7x7, partner max 1 µM)	-0.0542	-0.0289	-0.0169	-0.0502	0.0033	0.0245	-0.0469	0.0077	0.0157	0.0059	-0.101	-0.0396	-0.0411	-0.0442	-0.0198	-0.0064	-0.0195	0.0013	-0.0384	0.0196
C=CCn1c(=O)c2cnc(Nc3ccc(N4CCN(C)CC4)cc3)nc2n1-c1cccc(C(C)(C)O)n1 [AZD1775] + O=C(c1cc(Cc2n[nH]c(=O)c3ccccc23)ccc1F)N1CCN(C(=O)C2CC2)CC1 [Olaparib] (first compound max 1 µM, partner max 10 µM)	-0.0521	-0.0465	-0.0279	-0.0222	-0.0237	-0.0303	-0.0313	-0.0882	-0.0554	-0.0622	-0.0373	-0.0469	-0.0579	-0.0561	-0.0122	-0.0069	-0.0568	-0.0004	-0.0341	0.0135
CN(CCO)CC[C@H](CSc1ccccc1)Nc1ccc(S(=O)(=O)NC(=O)c2ccc(N3CCC([C@@H](O)c4ccccc4-c4ccc(Cl)cc4)CC3)cc2)cc1S(=O)(=O)C(F)(F)F [AZD4320] + C[C@@H]1COCCN1C2=NC(=NC(=C2)C3(CC3)[S@](=N)(=O)C)C4=C5C=CNC5=NC=C4 [AZD6738] (first compound max 1 µM, 7x7, partner max 10 µM)	0.021	-0.0984	-0.0476	-0.0311	-0.0275	-0.0222	-0.0355	-0.0411	-0.0331	0.0047	-0.0271	-0.056	-0.0223	-0.0341	-0.0316	-0.0406	-0.0284	-0.0124	-0.0435	-0.028
COc1cccc(OCCCN)c1-c1cc(Nc2cnc(C#N)cn2)n[nH]1 [Prexasertib] + CN(C)CCCOc1ccc(-c2ccc3ncc4c(c3c2)n(C2CCOCC2)c(=O)n4C)cn1 [AZD0156] (first compound max 1 µM, 7x7, partner max 1 µM)	0.0251	-0.066	-0.0143	0.0382	0.0034	0.0133	0.0116	0.0424	0.0423	0.0582	0.0064	-0.0459	-0.0637	-0.0647	0.0233	-0.0253	-0.0307	-0.0156	0.0611	-0.0236
CS(=O)(=O)CCNCc1ccc(-c2ccc3ncnc(Nc4ccc(OCc5cccc(F)c5)c(Cl)c4)c3c2)o1 [Lapatinib] + Cn1cnc2c(F)c(Nc3ccc(Br)cc3Cl)c(C(=O)NOCCO)cc21 [Selumetinib] (first compound max 10 µM, 7x7, partner max 10 µM)	-0.0047	-0.0287	-0.141	0.0412	-0.0029	–	0.0361	-0.0519	–	–	0.0204	-0.0829	0.0027	-0.0492	–	0.0744	-0.0026	–	0.0022	–
COc1cc2ncnc(Nc3ccc(F)c(Cl)c3)c2cc1OCCCN1CCOCC1 [Gefitinib] + CC(C)n1c(=O)n(C)c2cnc3cc(F)c(-c4ccc(OCCCN5CCCCC5)nc4)cc3c21 [AZD1390] (first compound max 10 µM, 7x7, partner max 0.3 µM)	-0.0212	-0.0442	-0.0442	0.0167	-0.0712	-0.0633	-0.0418	-0.0669	-0.0423	-0.0648	-0.0657	-0.0318	-0.0871	-0.0733	-0.0485	-0.0835	–	-0.0442	-0.0718	-0.0399
CCc1c2c(nc3ccc(O)cc13)-c1cc3c(c(=O)n1C2)COC(=O)[C@]3(O)CC [SN-38] + O=C(c1cc(Cc2n[nH]c(=O)c3ccccc23)ccc1F)N1CCN(C(=O)C2CC2)CC1 [Olaparib] (first compound max 0.3 µM, 7x7, partner max 10 µM)	0.0415	0.0571	0.0175	0.0391	0.008	–	0.0556	0.0956	0.113	-0.0181	0.0394	-0.0377	0.0572	0.0234	0.119	0.0152	0.0588	–	-0.0068	0.035
Cc1nc(-c2cn3c(n2)-c2ccc(-c4cnn(C(C)(C)C(N)=O)c4)cc2OCC3)n(C(C)C)n1 [Taselisib] + O=C(Nc1ccc2[nH]nc(-c3ccncc3)c2c1)[C@@H]1CCN(CC(=O)N2CCN(c3ccc(-c4ncccn4)cc3)CC2)C1 [SCH772984] (first compound max 10 µM, 7x7, partner max 5 µM)	0.0064	0.0609	0.0285	0.0251	0.017	–	-0.0284	0.0374	–	–	-0.001	-0.034	0.023	-0.012	–	0.0831	0.0417	–	-0.0024	–
C=CCn1c(=O)c2cnc(Nc3ccc(N4CCN(C)CC4)cc3)nc2n1-c1cccc(C(C)(C)O)n1 [AZD1775] + CCc1c2c(nc3ccc(O)cc13)-c1cc3c(c(=O)n1C2)COC(=O)[C@]3(O)CC [SN-38] (first compound max 1 µM, partner max 0.3 µM)	0.0391	-0.0557	-0.122	0.0224	-0.0402	–	-0.0388	-0.072	–	–	-0.048	0.0209	0.0013	-0.1	–	-0.0987	-0.0503	–	-0.0327	–
CS(=O)(=O)CCNCc1ccc(-c2ccc3ncnc(Nc4ccc(OCc5cccc(F)c5)c(Cl)c4)c3c2)o1 [Lapatinib] + NC1(c2ccc(-c3nc4ccn5c(=O)[nH]nc5c4cc3-c3ccccc3)cc2)CCC1 [MK-2206] (first compound max 10 µM, 7x7, partner max 10 µM)	0.0235	0.0257	-0.0337	0.0378	0.0072	–	0.0841	0.0025	–	–	0.0164	-0.0024	-0.0005	-0.0423	–	-0.01	-0.0103	–	-0.0009	–
C=CCn1c(=O)c2cnc(Nc3ccc(N4CCN(C)CC4)cc3)nc2n1-c1cccc(C(C)(C)O)n1 [AZD1775] + C[C@@H]1COCCN1C2=NC(=NC(=C2)C3(CC3)[S@](=N)(=O)C)C4=C5C=CNC5=NC=C4 [AZD6738] (first compound max 1 µM, partner max 10 µM)	0.0263	-0.0067	-0.0327	0.0458	0.026	0.0818	-0.0212	-0.0746	0.0545	-0.0057	-0.0165	–	0.0406	-0.081	0.0981	-0.0075	0.0066	0.0035	-0.0377	-0.0454
CN(CCO)CC[C@H](CSc1ccccc1)Nc1ccc(S(=O)(=O)NC(=O)c2ccc(N3CCC([C@@H](O)c4ccccc4-c4ccc(Cl)cc4)CC3)cc2)cc1S(=O)(=O)C(F)(F)F [AZD4320] + CN(C)CCCOc1ccc(-c2ccc3ncc4c(c3c2)n(C2CCOCC2)c(=O)n4C)cn1 [AZD0156] (first compound max 1 µM, 7x7, partner max 1 µM)	0.0032	-0.0364	-0.0267	–	-0.0466	-0.0434	-0.0622	-0.0238	0.0325	-0.0454	-0.0597	-0.0085	-0.0931	-0.0479	-0.034	-0.069	-0.0693	-0.0137	-0.0224	-0.0015
